According to US9308269B2, “Stable liquid formulations of volatile gas anesthetics” (UNIVERSITY OF MIAMI, priority 2011, dated 2016):

Assays:
[1] = test system: p38 MAPK; assay: p38 MAPK activity after H2O2 oxidative stress in β-TC3 cells; assay type: cell-based, murine
Procedure: Murine insulinoma beta-TC3 (β-TC3) cells were used as a surrogate source of β-cells in vitro. The β-TC3 cells were incubated for 48 hours, and then subdivided into four (4) groups, with three (3) series of cell cultures per group repeated in triplicate. Group 1 were sham cultured β-TC3 cells; group 2 cells were subdivided into those pre-treated with 0.5 mM isoflurane for 15 minutes or 60 minutes without H2O2, followed by an isoflurane washout; group 3 cells were exposed only to 0.3 mM H2O2 for 3 hours; group 4 cells were pre-treated with isoflurane for 15 minutes or 60 minutes, as in group 2, followed by an isoflurane washout and exposure to 0.3 mM H2O2 for 3 hours. FIG. 26 is illustrative of the experimental design for the present study.

[2] = test system: Murine insulinoma beta-TC3 (β-TC3) cells; assay: Anesthetic preconditioning against H2O2 oxidative stress, cell viability by FACS; assay type: cell-based
Procedure: Murine insulinoma beta-TC3 (β-TC3) cells were used as a surrogate source of β-cells in vitro. […] FIG. 26 is illustrative of the experimental design for the present study. Cells were then harvested and assayed for viability via FACS analysis (Live/Dead far red, and TMRE, mitochondrial fluorescent dye to detect apoptosis). Data was analyzed using ANOVA with post hoc Tukey for multiple comparisons.

[3] = Isoflurane concentration in stored emulsion measured by weight; assay type: physicochemical; conditions: open container, about 21° C.
Procedure: A standard curve for determining isoflurane concentration was generated based upon 1 mL mixtures of a base solution, i.e., 2% w/v surfactant plus PBS or HBSS; 10% v/v FC-43; and, various known v/v % isoflurane concentrations. A 1 mL aliquot of each of these mixtures was weighed and compared to its expected weight based on the density of each component, and a predicted density of each mixture. The predicted or expected density of each mixture was determined by the following equation: ρexpected=ν%A*ρA+ν%BρB+ν%CρC
where ρ is the density, and A, B, C are the surfactant solution, PCF or FC-43, and isoflurane, respectively. FIG. 8 is a standard curve generated in accordance with the procedure of this example for the determination of isoflurane concentration by weight. The measured values were compared to the theoretical values, or ρexpected, and a high degree of correlation, R^2>0.99, was observed, as illustrated in FIG. 9.
From the standard curve generated of the mixtures, the content of isoflurane in any emulsion can be determined by weighing a known volume, for example, a 1 mL aliquot. and tabulating the known portions of the weight, e.g., the volume percentages of the base solution and PCF, i.e., FC-43, and calculating the unknown volume by dividing the remaining weight by the density of pure isoflurane. […]

[4] = Isoflurane concentration and loss over time measured by ATR-FTIR (1300-1260 cm^-1); assay type: physicochemical; conditions: exposed to air
Procedure: In accordance with the present example, ATR-FTIR spectra were recorded on a PerkinElmer Spectrum 100 FTIR spectrometer equipped with a KBr beam splitter, 1 bounce Universal Di/ZnSe ATR sampling accessory, and electronically, temperature-stabilized fast recovery deuterated triglycine sulfate detector. The spectra generated are an average of four scans at a resolution of 4 cm^−1. Emulsion samples of 50 μL each were obtained from each of the emulsions described below, and the emulsion samples were measured by covering the measurement surface. Standard curves were generated by manufacturing emulsions of known volume percentage isoflurane by gravimetric determination, performing ATR-FTIR measurements and then, taking area under the curve (“AUC”) determinations of peaks in the region specific to fluorine bond vibration (1300-1000 cm^−1). […]
From these peaks, measurements of the area under the curve (“AUC”) for each of the two spectral regions, once again, 1300-1260 cm^−1 and 1225-1011 cm^−1, were used to generate standard curves of isoflurane concentration. […] The two curves were generated to evaluate the possibility of isoflurane loss during the emulsification process, as a comparison between the two standard curves would allow for assessment of error in emulsion manufacture and allow for more accurate quantification. […]

Row | time to essentially complete evaporation [3] | fraction of sample evaporated ([3]; after about 0.2 hours) [%] | time to complete evaporation on ATR-FTIR crystal [4] [s] | SMILES | p38 MAPK activity ([1]; treatment by H2O2 alone) | β-TC3 cell survival compared to controls ([2]; 0.3 mM H2O2 for 3 hours alone) [%] | p38 MAPK activity ([1]; isoflurane pretreatment, compared to cells exposed to H2O2 alone) | β-TC3 cell survival compared to controls ([2]; 0.5 mM isoflurane pretreatment 15 minutes, washout, then 0.3 mM H2O2 for 3 hours) [%] | β-TC3 cell survival compared to controls ([2]; 0.5 mM isoflurane pretreatment 60 minutes, washout, then 0.3 mM H2O2 for 3 hours) [%]
1 |  |  |  | OO [H2O2, hydrogen peroxide] | increased protein kinase activity | 44±13 |  |  | 
2 | over 0.5 hours | ~50 | ≤ 10 | FC(F)OC(Cl)C(F)(F)F (centres unmarked) [isoflurane] |  |  | significantly decreased p38 MAPK activity | 98±2 | 105±0
